Experimental data reported in US9724380B2, “Method and compositions for synchronizing time of insemination in gilts” (JBS UNITED ANIMAL HEALTH II LLC, priority 2012, dated 2017).

Columns and labels:
[1] = tested on: serum LH; assay: Example 5: serum LH surge after triptorelin gel (jugular catheter subpopulation); type: in vivo, swine
Protocol: All gilts were individually fed MATRIX® as a top-dress for 14 or 15 days at the recommended rate of 15 mg/gilt/day. Gilts were withdrawn from MATRIX® feeding (last top-dress in the morning on Day 0) and allocated to each of the following treatments. Controls were vehicle gel treated (vehicle gel without triptorelin) at 120 (+/−2) hours following MATRIX® withdrawal (last top dress). The other gilts were given 100, 200 or 400 mcg triptorelin as the acetate in a methylcellulose gel formulation 120 (+/−2) hours following MATRIX® withdrawal. The four treatments were: • 1. Vehicle gel (VG): vehicle gel without triptorelin at 120 (+/−2) hours after MATRIX® withdrawal. • 2. TG 100: 100 mcg (2 mL 50 mcg/mL) triptorelin gel at 120 (+/−2) hours after MATRIX® withdrawal. • 3. TG 200: 200 mcg (2 mL 100 mcg/mL) triptorelin gel at 120 (+/−2) hours after MATRIX® withdrawal. • 4. TG 400: 400 mcg (2 mL 200 mcg/mL) triptorelin gel at 120 (+/−2) hours after MATRIX® withdrawal.
A catheter was inserted non-surgically into the jugular vein (Kraeling et al. 1982) of a subpopulation of gilts in each treatment group (vehicle gel, n=8; 100 mcg triptorelin, n=6; 200 mcg triptorelin, n=7 and 400 mcg triptorelin, n=6). Ten mL blood samples were collected every 15 minutes for one hour prior to treatment, immediately following treatment (0) and at 0.5, 1, 2, 4, 6, 12, 18, 24, 36 and 48 hours after treatment. Blood samples were maintained at 4° C. until centrifuged at 800×g for 15 minutes within 12 hours of collection. The resulting serum was stored frozen until assayed for LH using validated procedures for pig serum (Kesner et al., 1987 and Kraeling et al., 1982). Onset, duration, and magnitude of the LH surge were analyzed. The LH data were analyzed with the General Linear Models procedure of SAS. Differences between treatments were tested on least squares means estimates using the T test at P<0.05. Onset of the LH surge is when serum LH concentration is greater than or equal to two standard deviations of the mean of the pre-treatment serum LH concentrations. Duration of the LH surge is the period between onset and when serum LH concentration is again less than or equal to two standard deviations of the mean of the pre-treatment serum LH concentrations. Magnitude of the LH surge is the maximum serum LH concentration reached during the LH surge.
A single 2 mL dose of triptorelin gel or vehicle gel was deposited within approximately 1-2 cm posterior to the cervix with a catheter similar to those used for artificial insemination. The dose was delivered using a standard multi-dose applicator attached to the catheter. A new disposable sheath, which surrounds the catheter, was used for each gilt.

[2] = tested on: gilts; assay: Example 1: estrus observation (boar exposure, back pressure) after triptorelin gel; type: in vivo, swine; details: 200 mcg T at 120 h post-MATRIX; raw average; PTK 1-07 (rep 3)
Protocol: All gilts were individually fed MATRIX® as a top-dress for 14 days at the recommended rate of 15 mg/gilt/day. Gilts were withdrawn from MATRIX® feeding (last top feed in the morning on Day 0) and allotted to treatments. Controls were treated with a 1.2% methylcellulose gel formulation without triptorelin at 96 hours following MATRIX® withdrawal (last top-dress). The remaining gilts received 200 mcg triptorelin, as the acetate, in a 1.2% methylcellulose gel formulation intravaginally at various times after MATRIX® withdrawal. The four treatments were: 1) vehicle gel (VG) treatment at 96 hours after MATRIX® withdrawal, 2) triptorelin gel (TG) treatment at 96 hours after MATRIX® withdrawal, 3) TG treatment at 120 hours after MATRIX® withdrawal and 4) TG treatment at 144 hours after MATRIX® withdrawal. All gilts were monitored for their estrous and ovulatory status as described below. Gilts included in replicate 1 were selected from terminal line commercial production gilts located in grow/finish barns. Sexual maturity, as indicated by one or more estrous periods, was not verified prior to the start of MATRIX® feeding. Gilts included in replicate 2 were selected from a maternal line gilt population. Sexual maturity was verified by at least one estrous period verified and recorded prior to starting MATRIX® feeding. […]
Data were analyzed using the Mixed Models procedures of SAS. […]

[3] = 200 mcg T, LS mean (1 gilt with surge)
[4] = 200 mcg T, relative to time of triptorelin gel treatment, LS mean (1 gilt with surge)

With CC(C)C[C@H](NC(=O)[C@@H](Cc1c[nH]c2ccccc12)NC(=O)[C@H](Cc1ccc(O)cc1)NC(=O)[C@H](CO)NC(=O)[C@H](Cc1c[nH]c2ccccc12)NC(=O)[C@H](Cc1c[nH]cn1)NC(=O)[C@@H]1CCC(=O)N1)C(=O)N[C@@H](CCCNC(=N)N)C(=O)N1CCC[C@H]1C(=O)NCC(N)=O [T, pGlu-His-Trp-Ser-Tyr-D-Trp-Leu-Arg-Pro-Gly-NH2] the “Gilts, which displayed a LH surge (number)” value (shortened to “Gilts … (number)”) ([1]; 100 mcg T (n = 6)) was 4, the “Magnitude of LH surge (maximum serum LH concentration)” value (from here on “Magnitude of LH surge”) ([1]; 100 mcg T, LS mean ± SE) was 3.94 ± 1.22 and the “Onset of LH surge” value ([1]; 100 mcg T, relative to time of triptorelin gel treatment, LS mean ± SE) was 4 ± 3. The “Gilts … (number)” value ([1]; 200 mcg T (n = 7)) was 1, the “Duration of LH surge” value [1, 3] was 18 and the “Magnitude of LH surge” value [1, 3] was 8.98. The “Onset of LH surge” value [1, 4] was 0.5, the “Time of maximum LH conc.” value [1, 4] was 4 and the “Gilts … (number)” value ([1]; 400 mcg T (n = 6)) was 5. For the same compound, the “Magnitude of LH surge” value ([1]; 400 mcg T, LS mean ± SE) was 11.65 ± 12.35, the “Onset of LH surge” value ([1]; 400 mcg T, relative to time of triptorelin gel treatment, LS mean ± SE) was 4 ± 4 and the “Estrous Expression (%)” value [2] was 100.0%.
